This passage reports remaining binding results from PMC8799717, “Pharmacological targeting PIKfyve and tubulin as an effective treatment strategy for double-hit lymphoma” (Cell Death Discovery, 2022).

Test in all cases: biochemical
What all share (design): KINOMEscan active-site-directed competition binding panel, 468 kinases, percent of DMSO control at 1 uM
What all share (settings): KINOMEscan binding, percent of DMSO control; read-out: Ctrl%

For assay [1], the target named is CSF1R-autoinhibited (Homo sapiens, UniProt P07333).
Chain of CSF1R-autoinhibited (P07333 whole entry): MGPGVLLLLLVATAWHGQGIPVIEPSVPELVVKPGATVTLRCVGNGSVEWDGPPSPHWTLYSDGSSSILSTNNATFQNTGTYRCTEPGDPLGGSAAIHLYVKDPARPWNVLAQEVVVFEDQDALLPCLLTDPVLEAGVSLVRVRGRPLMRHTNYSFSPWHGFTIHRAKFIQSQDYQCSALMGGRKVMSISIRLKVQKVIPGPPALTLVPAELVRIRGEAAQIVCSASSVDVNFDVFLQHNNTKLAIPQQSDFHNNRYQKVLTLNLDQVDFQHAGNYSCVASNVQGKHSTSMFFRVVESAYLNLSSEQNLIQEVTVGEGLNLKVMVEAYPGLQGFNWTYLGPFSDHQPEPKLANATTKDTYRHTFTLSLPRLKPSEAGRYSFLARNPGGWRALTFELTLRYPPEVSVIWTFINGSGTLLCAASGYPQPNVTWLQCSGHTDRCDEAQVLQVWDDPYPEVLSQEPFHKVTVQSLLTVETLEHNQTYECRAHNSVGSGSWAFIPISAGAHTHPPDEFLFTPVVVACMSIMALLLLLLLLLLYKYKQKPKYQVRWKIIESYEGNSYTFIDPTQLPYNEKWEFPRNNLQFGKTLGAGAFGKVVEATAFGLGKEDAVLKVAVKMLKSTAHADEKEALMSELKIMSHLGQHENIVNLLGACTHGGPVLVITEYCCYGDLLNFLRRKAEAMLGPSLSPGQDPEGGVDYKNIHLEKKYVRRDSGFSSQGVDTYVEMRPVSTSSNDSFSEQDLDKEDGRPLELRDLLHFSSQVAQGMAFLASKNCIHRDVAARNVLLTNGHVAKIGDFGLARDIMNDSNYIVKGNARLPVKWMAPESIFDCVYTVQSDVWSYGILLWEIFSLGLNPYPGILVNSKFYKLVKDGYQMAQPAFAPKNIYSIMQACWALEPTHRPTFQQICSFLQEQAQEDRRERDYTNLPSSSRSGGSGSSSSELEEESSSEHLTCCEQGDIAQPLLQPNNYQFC
For assay [2], the target named is T1, SIK (Homo sapiens, UniProt P57059).
T1 construct: gene SIK1
T1 sequence (P57059 whole entry): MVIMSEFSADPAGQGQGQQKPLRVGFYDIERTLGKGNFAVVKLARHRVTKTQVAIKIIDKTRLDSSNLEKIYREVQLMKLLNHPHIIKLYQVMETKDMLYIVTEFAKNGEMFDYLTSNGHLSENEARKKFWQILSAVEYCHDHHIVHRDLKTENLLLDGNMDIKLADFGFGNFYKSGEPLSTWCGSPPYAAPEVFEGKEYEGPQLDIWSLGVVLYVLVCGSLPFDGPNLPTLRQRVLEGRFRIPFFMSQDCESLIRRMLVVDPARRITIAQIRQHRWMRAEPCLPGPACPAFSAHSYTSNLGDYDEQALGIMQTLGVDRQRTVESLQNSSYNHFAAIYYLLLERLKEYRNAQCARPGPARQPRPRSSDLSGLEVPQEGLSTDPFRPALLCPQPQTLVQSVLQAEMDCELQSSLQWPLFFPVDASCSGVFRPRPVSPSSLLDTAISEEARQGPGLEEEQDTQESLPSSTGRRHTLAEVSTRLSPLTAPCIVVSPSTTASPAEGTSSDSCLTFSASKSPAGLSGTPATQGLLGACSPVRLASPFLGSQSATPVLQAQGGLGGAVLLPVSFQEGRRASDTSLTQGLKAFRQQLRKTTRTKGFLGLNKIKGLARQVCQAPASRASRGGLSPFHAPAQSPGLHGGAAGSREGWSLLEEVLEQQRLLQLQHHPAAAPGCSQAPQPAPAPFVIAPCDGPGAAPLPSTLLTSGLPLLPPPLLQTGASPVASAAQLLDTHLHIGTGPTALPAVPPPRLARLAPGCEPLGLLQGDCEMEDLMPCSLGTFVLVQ

Assay [3] deals with T2, CDC2L1 (Homo sapiens, UniProt P21127).
T2 construct: gene CDK11B

The target in assay [4] is CSNK1A1L (Homo sapiens, UniProt Q8N752).
The target in assay [5] is T3, RIPK5 (Homo sapiens, UniProt Q6XUX3).
T3 construct: gene DSTYK

For assay [6], the target named is SIK2 (Homo sapiens, UniProt Q9H0K1).
Assay [7] addresses STK16 (Homo sapiens, UniProt O75716).
For assay [8], the target named is CHEK1 (Homo sapiens, UniProt O14757).
Assay [9] has as its target IGF1R (Homo sapiens, UniProt P08069).
Assay [10] deals with T4, PFTAIRE2 (Homo sapiens, UniProt Q96Q40).
T4 construct: gene CDK15

The target in assay [11] is T5, YANK2 (Homo sapiens, UniProt Q9NY57).
T5 construct: gene STK32B

Assay [12] has as its target MYLK4 (Homo sapiens, UniProt Q86YV6).
Assay [13] deals with EGFR(G719S) (Homo sapiens, UniProt P00533, G719S).
Assay [14] has as its target MTOR (Homo sapiens, UniProt P42345).
Assay [15] deals with PIK3CA(H1047Y) (Homo sapiens, UniProt P42336, H1047Y).
Assay [16] concerns the target WEE1 (Homo sapiens, UniProt P30291).
The target of assay [17] is ACVR1 (Homo sapiens, UniProt Q04771).
Assay [18] deals with T6, IKK-alpha (Homo sapiens, UniProt O15111).
T6 construct: gene CHUK

The target of assay [19] is CHEK2 (Homo sapiens, UniProt O96017).
Assay [20] concerns the target PIM2 (Homo sapiens, UniProt Q9P1W9).
For assay [21], the target named is CDKL1 (Homo sapiens, UniProt Q00532).
Chain of CDKL1 (Q00532 whole entry): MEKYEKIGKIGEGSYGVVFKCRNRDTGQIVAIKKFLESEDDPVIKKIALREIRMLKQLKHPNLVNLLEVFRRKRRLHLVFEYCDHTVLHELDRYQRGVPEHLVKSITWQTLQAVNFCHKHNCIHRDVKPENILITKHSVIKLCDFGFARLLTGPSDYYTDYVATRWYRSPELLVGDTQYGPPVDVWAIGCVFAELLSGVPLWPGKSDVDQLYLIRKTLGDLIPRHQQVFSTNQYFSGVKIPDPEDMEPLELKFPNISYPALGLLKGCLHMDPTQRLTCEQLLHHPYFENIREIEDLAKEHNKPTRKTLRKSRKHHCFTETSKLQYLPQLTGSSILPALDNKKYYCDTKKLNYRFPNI
Assay [22] concerns the target T7, ABL1(H396P)-phosphorylated (Homo sapiens, UniProt P00519, H396P).
T7 construct: phosphorylated

In assay [23] the target is TRPM6 (Homo sapiens, UniProt Q9BX84).
The target in assay [24] is CLK3 (Homo sapiens, UniProt P49761).

Chain of PIM2 (Q9P1W9 whole entry): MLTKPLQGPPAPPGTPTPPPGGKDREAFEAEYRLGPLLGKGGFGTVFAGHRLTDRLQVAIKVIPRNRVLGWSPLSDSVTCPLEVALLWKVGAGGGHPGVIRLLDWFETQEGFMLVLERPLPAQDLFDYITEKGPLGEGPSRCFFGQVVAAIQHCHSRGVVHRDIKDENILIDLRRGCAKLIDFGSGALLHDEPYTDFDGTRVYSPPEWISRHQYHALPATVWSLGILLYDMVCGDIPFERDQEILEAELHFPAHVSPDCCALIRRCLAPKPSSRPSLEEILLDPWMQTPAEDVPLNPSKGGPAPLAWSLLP
Chain of MYLK4 (Q86YV6 whole entry): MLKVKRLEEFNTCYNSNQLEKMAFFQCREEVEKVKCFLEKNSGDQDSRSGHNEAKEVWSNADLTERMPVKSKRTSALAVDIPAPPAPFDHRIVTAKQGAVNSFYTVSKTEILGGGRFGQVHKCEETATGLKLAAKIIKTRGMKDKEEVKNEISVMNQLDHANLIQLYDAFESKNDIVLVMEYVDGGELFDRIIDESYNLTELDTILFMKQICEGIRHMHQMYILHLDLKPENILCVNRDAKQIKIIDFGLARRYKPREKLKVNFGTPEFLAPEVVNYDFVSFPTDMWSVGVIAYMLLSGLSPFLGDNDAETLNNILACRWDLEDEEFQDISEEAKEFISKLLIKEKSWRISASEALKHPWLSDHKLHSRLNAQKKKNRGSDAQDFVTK
Chain of WEE1 (P30291 whole entry): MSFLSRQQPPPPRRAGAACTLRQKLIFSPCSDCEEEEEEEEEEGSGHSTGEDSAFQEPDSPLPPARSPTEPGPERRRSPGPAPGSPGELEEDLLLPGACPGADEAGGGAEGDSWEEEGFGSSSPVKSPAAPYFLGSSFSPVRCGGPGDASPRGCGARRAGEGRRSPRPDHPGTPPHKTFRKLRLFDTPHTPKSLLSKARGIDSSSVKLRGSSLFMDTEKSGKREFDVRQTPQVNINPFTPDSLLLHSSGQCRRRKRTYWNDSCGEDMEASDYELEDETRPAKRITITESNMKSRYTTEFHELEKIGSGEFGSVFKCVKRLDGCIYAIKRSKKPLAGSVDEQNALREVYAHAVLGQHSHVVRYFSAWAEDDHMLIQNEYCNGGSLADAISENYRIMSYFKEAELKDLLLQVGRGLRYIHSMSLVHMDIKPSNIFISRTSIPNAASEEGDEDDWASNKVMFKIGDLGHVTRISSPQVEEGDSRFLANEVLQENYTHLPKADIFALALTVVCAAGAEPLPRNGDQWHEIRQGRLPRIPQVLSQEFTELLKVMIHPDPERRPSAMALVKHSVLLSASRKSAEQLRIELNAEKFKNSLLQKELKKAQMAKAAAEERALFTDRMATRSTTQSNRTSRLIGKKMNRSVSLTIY
Chain of IGF1R (P08069 whole entry): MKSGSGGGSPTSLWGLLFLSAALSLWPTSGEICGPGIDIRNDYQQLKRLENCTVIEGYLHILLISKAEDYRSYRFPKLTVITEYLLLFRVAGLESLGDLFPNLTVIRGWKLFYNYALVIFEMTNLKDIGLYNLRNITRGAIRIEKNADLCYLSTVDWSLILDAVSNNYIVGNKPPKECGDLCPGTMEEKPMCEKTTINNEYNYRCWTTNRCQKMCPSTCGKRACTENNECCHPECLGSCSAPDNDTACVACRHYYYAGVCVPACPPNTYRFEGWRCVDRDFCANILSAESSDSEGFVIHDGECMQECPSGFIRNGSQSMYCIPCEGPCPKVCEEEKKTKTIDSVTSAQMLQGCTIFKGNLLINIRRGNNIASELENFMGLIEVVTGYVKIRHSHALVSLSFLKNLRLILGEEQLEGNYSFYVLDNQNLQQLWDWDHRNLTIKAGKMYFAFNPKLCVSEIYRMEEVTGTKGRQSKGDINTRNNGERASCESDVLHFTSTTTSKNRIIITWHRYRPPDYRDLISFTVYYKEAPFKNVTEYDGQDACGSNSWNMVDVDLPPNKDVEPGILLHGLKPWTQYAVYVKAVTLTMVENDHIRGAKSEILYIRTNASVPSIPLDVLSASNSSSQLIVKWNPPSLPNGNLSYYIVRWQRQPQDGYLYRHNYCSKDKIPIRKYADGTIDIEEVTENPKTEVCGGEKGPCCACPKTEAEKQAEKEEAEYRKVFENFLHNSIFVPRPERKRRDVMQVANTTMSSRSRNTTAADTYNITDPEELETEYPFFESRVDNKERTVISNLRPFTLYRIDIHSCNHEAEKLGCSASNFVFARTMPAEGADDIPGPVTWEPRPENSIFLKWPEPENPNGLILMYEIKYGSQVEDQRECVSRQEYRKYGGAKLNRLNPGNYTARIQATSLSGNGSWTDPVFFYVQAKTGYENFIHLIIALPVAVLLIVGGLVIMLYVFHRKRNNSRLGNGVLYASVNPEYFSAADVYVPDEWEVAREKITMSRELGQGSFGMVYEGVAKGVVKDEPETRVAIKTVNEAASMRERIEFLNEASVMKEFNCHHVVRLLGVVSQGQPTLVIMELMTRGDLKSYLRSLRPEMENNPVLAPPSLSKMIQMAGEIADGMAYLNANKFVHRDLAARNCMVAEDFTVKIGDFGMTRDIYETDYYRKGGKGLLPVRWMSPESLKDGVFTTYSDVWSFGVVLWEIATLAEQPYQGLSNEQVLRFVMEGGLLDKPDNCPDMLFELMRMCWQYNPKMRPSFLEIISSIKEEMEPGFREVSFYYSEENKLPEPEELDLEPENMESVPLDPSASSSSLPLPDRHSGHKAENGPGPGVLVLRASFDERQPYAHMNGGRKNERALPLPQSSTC

`Cc1ccc(NC(=O)c2cccc(C(F)(F)F)c2)cc1Nc1cc(-c2cccnc2)nc2[nH]ccc12` [HZX-02-059]: the remaining binding at 1 µM in assay [1] came out at 93%; in assay [2] it was 90%; in assay [3] it was 75%; in assay [4], 92%; in assay [5] it was 100%; in assay [6], 87%. In addition, the remaining binding at 1 µM stood at 96% in assay [7]; 88% in assay [8]; 92% in [9]; 81% in assay [10]; 100% in assay [11]; 90% in assay [12]. The remaining binding at 1 µM stood at 97% in [13]; 99% in [14]; 88% in assay [15]; 95% in assay [16]; 77% in [17]; 100% in [18]. Besides, the remaining binding at 1 µM in [19] came to 61%; in assay [20], 88%; in assay [21], 89%; in assay [22], 84%; in assay [23], 50%; in assay [24] it was 82%.
